Literature values, collected in patent publication US6710051B1, “Screening method” (Klaus Trier APS, priority 1997, dated 2004).
Read-outs that look alike come from different tables or passages of the source.

Target: T1, skeletal RyR (Oryctolagus cuniculus, UniProt P11716)
T1 construct: Structure-activity Relationship of Xanthines and Skeletal Muscle Ryanodine Receptor/Ca^2+ Release Channel; from tissue; host or cells: Skeletal muscle
Conditions: cited from earlier work; for Bound [3H]ryanodine pmol/mg protein / Bound [3H]ryanodine, % of control, +1 mmol/l AMPPCP / Bound [3H]ryanodine, % of control, +3 mmol/l AMP / Bound [3H]ryanodine % of control: xanthine […]; for Bound [3H]ryanodine pmol/mg protein / Bound [3H]ryanodine % of control: 1 mmol/l AMPPCP; for Bound [3H]ryanodine pmol/mg protein: means±SD of 3-4 experiments; for effect on the [3H] ryanodine binding compared to the control xanthine: Table 3

[1] = control 3,7-dimethylxanthine = 100
[2] = control 1,3-dimethylxanthine = 100

T1 sequence (P11716 whole entry): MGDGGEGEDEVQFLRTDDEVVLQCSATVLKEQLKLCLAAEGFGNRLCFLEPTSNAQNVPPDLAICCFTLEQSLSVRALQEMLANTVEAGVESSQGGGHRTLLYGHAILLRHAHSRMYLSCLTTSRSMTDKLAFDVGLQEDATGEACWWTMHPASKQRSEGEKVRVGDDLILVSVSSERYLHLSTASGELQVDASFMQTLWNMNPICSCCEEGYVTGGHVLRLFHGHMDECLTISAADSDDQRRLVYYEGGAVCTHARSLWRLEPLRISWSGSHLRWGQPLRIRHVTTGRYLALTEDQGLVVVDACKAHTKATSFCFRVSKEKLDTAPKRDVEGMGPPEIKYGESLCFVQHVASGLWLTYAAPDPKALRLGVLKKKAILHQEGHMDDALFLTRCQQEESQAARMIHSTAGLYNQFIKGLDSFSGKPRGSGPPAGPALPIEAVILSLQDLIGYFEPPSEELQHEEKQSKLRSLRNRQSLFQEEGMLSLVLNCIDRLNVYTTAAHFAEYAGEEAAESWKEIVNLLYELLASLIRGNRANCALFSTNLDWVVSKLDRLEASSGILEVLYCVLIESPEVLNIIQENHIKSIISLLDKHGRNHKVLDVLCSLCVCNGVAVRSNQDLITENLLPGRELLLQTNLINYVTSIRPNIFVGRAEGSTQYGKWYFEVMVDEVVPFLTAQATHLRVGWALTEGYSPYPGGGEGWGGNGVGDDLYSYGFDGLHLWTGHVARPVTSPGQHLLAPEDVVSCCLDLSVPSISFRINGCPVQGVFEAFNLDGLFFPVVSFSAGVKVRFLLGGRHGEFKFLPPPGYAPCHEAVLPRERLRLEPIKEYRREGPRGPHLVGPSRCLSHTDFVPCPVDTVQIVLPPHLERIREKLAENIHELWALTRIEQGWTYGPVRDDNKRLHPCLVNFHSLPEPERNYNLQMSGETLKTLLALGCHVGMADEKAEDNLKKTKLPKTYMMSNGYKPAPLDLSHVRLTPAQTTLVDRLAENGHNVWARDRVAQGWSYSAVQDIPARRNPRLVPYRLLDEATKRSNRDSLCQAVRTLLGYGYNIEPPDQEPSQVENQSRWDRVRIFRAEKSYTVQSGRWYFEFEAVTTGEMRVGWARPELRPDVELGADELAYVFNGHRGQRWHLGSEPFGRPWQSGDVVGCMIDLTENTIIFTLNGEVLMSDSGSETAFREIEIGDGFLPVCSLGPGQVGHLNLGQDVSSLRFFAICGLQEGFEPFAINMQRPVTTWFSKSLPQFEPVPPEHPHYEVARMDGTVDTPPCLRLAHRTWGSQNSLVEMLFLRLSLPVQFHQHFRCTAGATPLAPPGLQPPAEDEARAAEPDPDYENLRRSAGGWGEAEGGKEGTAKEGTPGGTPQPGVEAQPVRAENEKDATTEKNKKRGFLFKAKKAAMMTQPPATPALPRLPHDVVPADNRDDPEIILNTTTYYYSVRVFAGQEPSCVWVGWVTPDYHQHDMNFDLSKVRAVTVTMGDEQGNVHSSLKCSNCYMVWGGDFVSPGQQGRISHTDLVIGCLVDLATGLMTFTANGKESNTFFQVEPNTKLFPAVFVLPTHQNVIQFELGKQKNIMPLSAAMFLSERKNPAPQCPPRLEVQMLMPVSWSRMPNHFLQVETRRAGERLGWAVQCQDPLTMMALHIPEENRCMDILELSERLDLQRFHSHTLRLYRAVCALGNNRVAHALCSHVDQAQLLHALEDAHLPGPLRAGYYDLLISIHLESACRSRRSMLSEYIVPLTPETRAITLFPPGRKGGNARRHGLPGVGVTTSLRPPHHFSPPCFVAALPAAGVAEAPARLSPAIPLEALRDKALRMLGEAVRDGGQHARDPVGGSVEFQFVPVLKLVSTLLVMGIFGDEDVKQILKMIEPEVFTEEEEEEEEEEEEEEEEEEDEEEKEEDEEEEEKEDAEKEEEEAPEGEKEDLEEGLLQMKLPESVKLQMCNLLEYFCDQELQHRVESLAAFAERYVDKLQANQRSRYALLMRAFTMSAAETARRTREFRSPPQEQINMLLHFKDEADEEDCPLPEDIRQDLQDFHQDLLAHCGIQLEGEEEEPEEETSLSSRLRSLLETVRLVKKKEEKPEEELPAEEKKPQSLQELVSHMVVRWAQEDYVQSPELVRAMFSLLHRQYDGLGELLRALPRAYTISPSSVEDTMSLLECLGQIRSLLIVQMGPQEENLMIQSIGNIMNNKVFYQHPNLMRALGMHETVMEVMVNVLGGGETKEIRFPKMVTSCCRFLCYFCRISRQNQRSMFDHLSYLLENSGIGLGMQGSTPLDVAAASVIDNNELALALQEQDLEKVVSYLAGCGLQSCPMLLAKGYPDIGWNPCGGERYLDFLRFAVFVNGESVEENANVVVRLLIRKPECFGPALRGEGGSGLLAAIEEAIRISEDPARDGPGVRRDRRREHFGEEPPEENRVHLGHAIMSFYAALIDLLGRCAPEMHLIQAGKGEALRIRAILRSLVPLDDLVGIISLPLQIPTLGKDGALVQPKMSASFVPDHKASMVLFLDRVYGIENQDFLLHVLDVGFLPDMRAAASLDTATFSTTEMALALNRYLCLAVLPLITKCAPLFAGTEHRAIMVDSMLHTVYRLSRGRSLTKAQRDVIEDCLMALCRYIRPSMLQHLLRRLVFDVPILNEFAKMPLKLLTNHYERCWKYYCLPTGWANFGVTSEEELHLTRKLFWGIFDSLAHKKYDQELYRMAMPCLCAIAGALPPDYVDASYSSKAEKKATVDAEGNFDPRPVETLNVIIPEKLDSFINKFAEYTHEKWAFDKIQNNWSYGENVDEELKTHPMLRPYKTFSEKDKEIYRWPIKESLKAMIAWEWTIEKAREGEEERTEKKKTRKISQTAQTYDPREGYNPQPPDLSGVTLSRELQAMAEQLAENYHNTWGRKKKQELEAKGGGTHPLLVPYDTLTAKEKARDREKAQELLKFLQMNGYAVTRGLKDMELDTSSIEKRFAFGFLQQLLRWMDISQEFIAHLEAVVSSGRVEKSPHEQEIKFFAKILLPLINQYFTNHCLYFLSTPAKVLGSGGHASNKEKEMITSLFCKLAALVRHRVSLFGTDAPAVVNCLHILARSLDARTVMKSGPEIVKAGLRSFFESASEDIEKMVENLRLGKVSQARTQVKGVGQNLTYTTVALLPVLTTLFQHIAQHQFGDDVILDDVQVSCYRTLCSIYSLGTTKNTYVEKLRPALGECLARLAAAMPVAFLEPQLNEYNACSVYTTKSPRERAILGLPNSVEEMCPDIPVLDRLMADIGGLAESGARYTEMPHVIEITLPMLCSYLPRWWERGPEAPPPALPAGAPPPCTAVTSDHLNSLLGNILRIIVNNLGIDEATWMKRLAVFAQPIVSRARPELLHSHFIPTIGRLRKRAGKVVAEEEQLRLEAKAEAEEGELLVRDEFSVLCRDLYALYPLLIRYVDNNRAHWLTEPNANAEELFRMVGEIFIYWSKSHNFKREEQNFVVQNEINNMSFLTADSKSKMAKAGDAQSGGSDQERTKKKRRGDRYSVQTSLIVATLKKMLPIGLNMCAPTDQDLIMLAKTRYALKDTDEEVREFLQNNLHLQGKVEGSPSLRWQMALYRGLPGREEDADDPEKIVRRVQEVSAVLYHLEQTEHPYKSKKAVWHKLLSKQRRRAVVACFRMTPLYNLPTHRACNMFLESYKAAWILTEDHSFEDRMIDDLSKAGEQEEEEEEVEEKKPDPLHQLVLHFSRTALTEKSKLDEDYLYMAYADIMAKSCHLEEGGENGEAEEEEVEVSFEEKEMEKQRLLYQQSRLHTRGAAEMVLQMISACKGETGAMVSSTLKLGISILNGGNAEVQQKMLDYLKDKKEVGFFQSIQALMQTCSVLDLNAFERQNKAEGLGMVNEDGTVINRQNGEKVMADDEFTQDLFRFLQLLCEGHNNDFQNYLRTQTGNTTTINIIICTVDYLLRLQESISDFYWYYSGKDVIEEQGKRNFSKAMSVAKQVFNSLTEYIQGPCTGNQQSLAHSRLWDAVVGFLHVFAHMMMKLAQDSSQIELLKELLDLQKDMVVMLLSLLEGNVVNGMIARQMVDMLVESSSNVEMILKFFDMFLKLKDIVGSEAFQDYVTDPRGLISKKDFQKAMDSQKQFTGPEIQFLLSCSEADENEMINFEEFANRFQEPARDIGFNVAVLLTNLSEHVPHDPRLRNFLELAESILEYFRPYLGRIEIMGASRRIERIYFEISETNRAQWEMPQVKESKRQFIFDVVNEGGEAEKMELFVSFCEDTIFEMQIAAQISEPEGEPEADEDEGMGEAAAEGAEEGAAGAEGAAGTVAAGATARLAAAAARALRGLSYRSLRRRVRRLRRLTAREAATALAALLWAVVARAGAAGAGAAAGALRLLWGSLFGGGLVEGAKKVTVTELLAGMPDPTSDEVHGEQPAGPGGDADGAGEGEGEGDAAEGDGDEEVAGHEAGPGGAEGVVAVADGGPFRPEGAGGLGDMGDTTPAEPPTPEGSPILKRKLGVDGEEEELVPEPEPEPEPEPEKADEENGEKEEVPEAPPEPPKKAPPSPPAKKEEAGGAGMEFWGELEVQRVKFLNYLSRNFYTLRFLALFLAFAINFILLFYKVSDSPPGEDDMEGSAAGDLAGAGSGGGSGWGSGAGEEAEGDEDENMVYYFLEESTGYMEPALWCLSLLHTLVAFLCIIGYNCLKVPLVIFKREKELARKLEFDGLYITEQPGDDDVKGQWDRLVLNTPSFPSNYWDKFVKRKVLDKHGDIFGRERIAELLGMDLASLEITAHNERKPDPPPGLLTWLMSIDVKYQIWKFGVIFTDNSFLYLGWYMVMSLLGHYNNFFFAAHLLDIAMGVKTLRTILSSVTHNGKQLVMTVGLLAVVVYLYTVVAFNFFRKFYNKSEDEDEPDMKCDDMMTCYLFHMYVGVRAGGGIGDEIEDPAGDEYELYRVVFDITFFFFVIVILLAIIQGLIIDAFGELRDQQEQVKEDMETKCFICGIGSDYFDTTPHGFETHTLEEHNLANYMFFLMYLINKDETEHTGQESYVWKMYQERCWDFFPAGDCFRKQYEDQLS

Structure (SMILES)	Bound [3H]ryanodine pmol/mg protein	Bound [3H]ryanodine, % of control, +1 mmol/l AMPPCP (control (-xanthine) = 100)	Bound [3H]ryanodine, % of control, +3 mmol/l AMP (control (-xanthine) = 100)	Bound [3H]ryanodine % of control (control (-xanthine) = 100)	effect on the [3H] ryanodine binding compared to the control xanthine	Bound [3H]ryanodine % of control [1]	Bound [3H]ryanodine % of control [2]
Cn1c(=O)c2ncn(C)c2n(C)c1=O [1,3,9-Trimethylxanthine]	1.77 ± 0.12 pmol/mg protein	105 ± 7 % of control	103 ± 15 % of control				
CCCn1c(=O)c2c(ncn2C)n(CCC)c1=O [1,3-Dipropyl-7-methylxanthine]	4.96 ± 0.39 pmol/mg protein	295 ± 23 % of control	326 ± 30 % of control				
Cn1c(=O)[nH]c2ncn(C)c2c1=O [1,7-Dimethylxanthine]	6.08 ± 0.47 pmol/mg protein	360 ± 28 % of control	378 ± 34 % of control	360 ± 28 % of control			
Cn1c(=O)[nH]c2c(ncn2C)c1=O [1,9-Dimethylxanthine]	1.42 ± 0.23 pmol/mg protein	84 ± 14 % of control	86 ± 18 % of control	84 ± 14 % of control	less than 110%		
CC(=O)CCCCn1c(=O)c2c(ncn2C)n(C)c1=O [1-(5-Oxohexyl)-3,7-dimethylxanthine]	3.18 ± 0.08 pmol/mg protein	188 ± 5 % of control	185 ± 25 % of control			118 ± 3 % of control	
CCCCCCn1c(=O)c2c(ncn2C)n(C)c1=O [1-Hexyl-3,7-dimethylxanthine]	6.99 ± 0.80 pmol/mg protein	414 ± 47 % of control	449 ± 28 % of control		more than 200%	259 ± 24 % of control	
Cn1c(=O)[nH]c2nc[nH]c2c1=O [1-Methylxanthine]	3.02 ± 0.38 pmol/mg protein	179 ± 22 % of control	167 ± 16 % of control	179 ± 22 % of control			
C#CCn1c(=O)c2c(ncn2C)n(C)c1=O [3,7-Dimethyl-1-propargylxanthine]	3.88 ± 0.10 pmol/mg protein	230 ± 6 % of control	201 ± 33 % of control			144 ± 3 % of control	
Cn1cnc2c(=O)[nH]c(=O)n(C)c21 [3,9-Dimethylxanthine]	2.42 ± 0.34 pmol/mg protein	143 ± 20 % of control	141 ± 11 % of control	143 ± 20 % of control			
CC(C)Cn1c(=O)n(C)c(=O)c2[nH]cnc21 [3-Isobutyl-1-methylxanthine]	2.96 ± 0.33 pmol/mg protein	175 ± 20 % of control	139 ± 11 % of control	175 ± 20 % of control			
Cn1c(=O)[nH]c(=O)c2[nH]cnc21 [3-Methylxanthine]	2.26 ± 0.15 pmol/mg protein	134 ± 9 % of control	137 ± 10 % of control	134 ± 9 % of control			
CCCn1c(=O)[nH]c(=O)c2[nH]cnc21 [3-Propylxanthine]	3.82 ± 0.23 pmol/mg protein	226 ± 14 % of control	203 ± 14 % of control	226 ± 14 % of control			
CN1CN(C)c2c1[nH]c(=O)[nH]c2=O [7,9-Dimethylxanthine]	1.73 ± 0.22 pmol/mg protein	102 ± 13 % of control	100 ± 15 % of control	102 ± 13 % of control			
Cn1c(=O)c2c(ncn2CC(O)CO)n(C)c1=O (stereo not drawn) [7-(2,3-Dihydroxypropyl)-1,3-dimethylxanthine]	1.97 ± 0.16 pmol/mg protein	117 ± 9 % of control	123 ± 16 % of control				69 ± 6 % of control
CCCn1cnc2[nH]c(=O)[nH]c(=O)c21 [7-Propylxanthine]	4.57 ± 0.20 pmol/mg protein	270 ± 12 % of control	234 ± 14 % of control	270 ± 12 % of control			
Cn1c(=O)c2c(ncn2CCCl)n(C)c1=O [7β-Chloroethyl-1,3-dimethylxanthine]	3.88 ± 0.16 pmol/mg protein	230 ± 9 % of control	256 ± 34 % of control				135 ± 6 % of control
Cn1c(=O)c2c(ncn2CCO)n(C)c1=O [7β-Hydroxyethyl-1,3-dimethylxanthine]	2.10 ± 0.26 pmol/mg protein	124 ± 15 % of control	134 ± 15 % of control				73 ± 4 % of control
Cn1c(=O)c2[nH]c(-c3ccc(S(=O)(=O)O)cc3)nc2n(C)c1=O [8-(p-Sulfophenyl)-1,3-dimethylxanthine]	1.55 ± 0.28 pmol/mg protein	92 ± 17 % of control	91 ± 16 % of control				54 ± 6 % of control
Cn1c(=O)c2[nH]c(Cl)nc2n(C)c1=O [8-Chloro-1,3-dimethylxanthine]	1.96 ± 0.13 pmol/mg protein	116 ± 17 % of control	108 ± 14 % of control				68 ± 4 % of control
Cn1c(=O)c2[nH]c(C3CCCC3)nc2n(C)c1=O [8-Cyclopentyl-1,3-dimethylxanthine]	2.25 ± 0.28 pmol/mg protein	133 ± 6 % of control	142 ± 14 % of control				78 ± 8 % of control
Cc1nc2[nH]c(=O)[nH]c(=O)c2[nH]1 [8-Methylxanthine]	1.61 ± 0.33 pmol/mg protein	95 ± 20 % of control	90 ± 11 % of control	95 ± 20 % of control			
Cn1c(=O)c2[nH]c(-c3ccccc3)nc2n(C)c1=O [8-Phenyl-1,3-dimethylxanthine]	1.67 ± 0.31 pmol/mg protein	99 ± 18 % of control	103 ± 14 % of control				58 ± 9 % of control
Cn1c(=O)c2[nH]c(CCC(=O)O)nc2n(C)c1=O [8-Propionic acid 1,3-dimethylxanthine]	1.73 ± 0.09 pmol/mg protein	102 ± 5 % of control	100 ± 11 % of control				60 ± 3 % of control
CCCn1cnc2c(=O)[nH]c(=O)[nH]c21 [9-Propylxanthine]	1.62 ± 0.20 pmol/mg protein	96 ± 12 % of control	97 ± 23 % of control	96 ± 12 % of control			
